From patent US8338598B2, “Herbicidal pyrido[2,3-B]pyrazines and their use as herbicides” (Syngenta Limited, priority 2008, dated 2012)

What was measured:
Assay type in all cases: in vivo
Nasturtium officinale = experiment: Example B1 herbicidal action, post-emergence, seed trays in climatic chamber; details: 1000 g/ha, evaluated after 9 days, 10=total damage to plant, 0=no damage to plant
Description: (§1) Seeds of a variety of test species were sown in sterilised standard soil in seed trays each having 96 cells. After cultivation for 8 to 9 days cultivation (post-emergence) under controlled conditions in a climatic chamber (cultivation at 23/17° C., day/night; 13 hours light; 50-60% humidity), the plants were treated with an aqueous spray solution of 1000 mg/l of the active ingredient dissolved in 10% DMSO (dimethyl sulfoxide, CAS RN 67-68-5) as a solvent, equivalent to 1000 g/ha. The plants were grown in the climatic chamber after application at (24/19° C., day/night; 13 hours light; 50-60% humidity) and watered twice daily. After 9 days until the test was evaluated (10=total damage to plant, 0=no damage to plant)

Solanum nigrum [1] = experiment: as above; details: 1000 g/ha, evaluated after 9 days, 10=total damage to plant, 0=no damage to plant
Description: as §1

Stellaria media = experiment: as above; details: 1000 g/ha, evaluated after 9 days, 10=total damage to plant, 0=no damage to plant
Description: as §1

Amaranthus retroflexus [2] = experiment: as above; details: 1000 g/ha, evaluated after 9 days, 10=total damage to plant, 0=no damage to plant
Description: as §1

Solanum nigrum [3] = experiment: Example B2 herbicidal action, post-emergence, pots in glasshouse; details: evaluated after 13 days, 10=total damage to plant, 0=no damage to plant
Description: (§2) Seeds of a variety of test species were sown in standard soil in pots. After cultivation for one day (pre-emergence) or after 8 days cultivation (post-emergence) under controlled conditions in a glasshouse (at 24/16° C., day/night; 14 hours light; 65% humidity), the plants were sprayed with an aqueous spray solution derived from the formulation of the technical active ingredient in acetone/water (50:50) solution containing 0.5% Tween 20 (polyoxyethelyene sorbitan monolaurate, CAS RN 9005-64-5). The test plants were then grown in a glasshouse under controlled conditions in a glasshouse (at 24/16° C., day/night; 14 hours light; 65% humidity) and watered twice daily. After 13 days, the test was evaluated (10=total damage to plant; 0=no damage to plant).

Amaranthus retroflexus [4] = experiment: as above; details: evaluated after 13 days, 10=total damage to plant, 0=no damage to plant
Description: as §2

Ipomea hederaceae [5] = experiment: as above; details: evaluated after 13 days, 10=total damage to plant, 0=no damage to plant
Description: as §2

Setaria faberi [6] = experiment: as above; details: evaluated after 13 days, 10=total damage to plant, 0=no damage to plant
Description: as §2

Echinochloa crus-galli [7] = experiment: as above; details: evaluated after 13 days, 10=total damage to plant, 0=no damage to plant
Description: as §2

Solanum nigrum [8] = experiment: Example B2 herbicidal action, pre-emergence, pots in glasshouse; details: evaluated after 13 days, 10=total damage to plant, 0=no damage to plant
Description: as §2

Amaranthus retroflexus [9] = experiment: as above; details: evaluated after 13 days, 10=total damage to plant, 0=no damage to plant
Description: as §2

Ipomea hederaceae [10] = experiment: as above; details: evaluated after 13 days, 10=total damage to plant, 0=no damage to plant
Description: as §2

Setaria faberi [11] = experiment: as above; details: evaluated after 13 days, 10=total damage to plant, 0=no damage to plant
Description: as §2

Echinochloa crus-galli [12] = experiment: as above; details: evaluated after 13 days, 10=total damage to plant, 0=no damage to plant
Description: as §2

Compound | NAAOF, damage to plant (Nasturtium officinale) | SOLNI, damage to plant (Solanum nigrum [1]) | STEME, damage to plant (Stellaria media) | AMARE, damage to plant (Amaranthus retroflexus [2]) | SOLNI, damage to plant (Solanum nigrum [3]; 1000 g/ha) | AMARE, damage to plant (Amaranthus retroflexus [4]; 1000 g/ha) | IPOHE, damage to plant (Ipomea hederaceae [5]; 1000 g/ha) | SETFA, damage to plant (Setaria faberi [6]; 1000 g/ha) | ECHCG, damage to plant (Echinochloa crus-galli [7]; 1000 g/ha) | SOLNI, damage to plant (Solanum nigrum [8]; 1000 g/ha) | AMARE, damage to plant (Amaranthus retroflexus [9]; 1000 g/ha) | IPOHE, damage to plant (Ipomea hederaceae [10]; 1000 g/ha) | SETFA, damage to plant (Setaria faberi [11]; 1000 g/ha) | ECHCG, damage to plant (Echinochloa crus-galli [12]; 1000 g/ha) | further results
CCOC(=O)Oc1c(-c2ncc(Cl)cc2Cl)c(=O)n(C)c2nccnc12 [Compound A2, Carbonic acid 7-(3,5-dichloro-pyrid-2-yl)-5-methyl-6-oxo-5,6-dihydro-pyrido-[2,3-b]pyrazin-8-yl ester ethyl ester] | 5 | 0 | 5 | 0 | – | – | – | – | – | – | – | – | – | – | –
CCn1c(=O)c(-c2ncc(Cl)cc2Cl)c(OC(=O)C(C)C)c2nccnc21 [Compound A6, isobutyric acid 7-(3,5-dichloro-pyrid-2-yl)-5-ethyl-6-oxo-5,6-dihydro-pyrido[2,3-b]pyrazin-8-yl ester] | 5 | 0 | 3 | 2 | – | – | – | – | – | – | – | – | – | – | –
CC(C)C(=O)Oc1c(-c2ncc(Cl)cc2Cl)c(=O)n(C)c2nccnc12 [Compound A7, Isobutyric acid 7-(3,5-dichloro-pyrid-2-yl)-5-methyl-6-oxo-5,6-dihydro-pyrido[2,3-b]pyrazin-8-yl ester] | 7 | 0 | 7 | 7 | – | – | – | – | – | – | – | – | – | – | –
O=c1c(-c2cnc(Cl)cc2Cl)c(O)c2nccnc2n1CC(F)F [Compound A19, 7-(4,6-Dichloro-pyrid-3-yl)-5-(2,2-difluoro-ethyl)-8-hydroxy-5H-pyrido[2,3-b]pyrazin-6-one] | – | – | – | – | 10 | 10 | 8 | 4 | 6 | 0 | 7 | 1 | 0 | 5 | –
CC(C)(C)C(=O)Oc1c(-c2cnc(Cl)cc2Cl)c(=O)n(CC(F)F)c2nccnc12 [Compound A20, 2,2-Dimethyl-propionic acid 7-(4,6-dichloro-pyrid-3-yl)-5-(2,2-difluoro-ethyl)-6-oxo-5,6-dihydro-pyrido[2,3-b]pyrazin-8-yl ester] | – | – | – | – | – | – | – | – | – | – | – | – | – | – | SOLNI, damage to plant (Solanum nigrum [3]; 250 g/ha): 10; AMARE, damage to plant (Amaranthus retroflexus [4]; 250 g/ha): 10; IPOHE, damage to plant (Ipomea hederaceae [5]; 250 g/ha): 10; SETFA, damage to plant (Setaria faberi [6]; 250 g/ha): 2; ECHCG, damage to plant (Echinochloa crus-galli [7]; 250 g/ha): 7; SOLNI, damage to plant (Solanum nigrum [8]; 250 g/ha): 1; AMARE, damage to plant (Amaranthus retroflexus [9]; 250 g/ha): 1; IPOHE, damage to plant (Ipomea hederaceae [10]; 250 g/ha): 0; SETFA, damage to plant (Setaria faberi [11]; 250 g/ha): 0; ECHCG, damage to plant (Echinochloa crus-galli [12]; 250 g/ha): 3
O=c1c(-c2cc(Cl)ncc2Cl)c(O)c2nccnc2n1CC(F)F [Compound A21, 7-(2,5-Dichloro-pyrid-4-yl)-5-(2,2-difluoro-ethyl)-8-hydroxy-5H-pyrido[2,3-b]pyrazin-6-one] | – | – | – | – | 8 | 9 | 7 | 7 | 7 | 0 | 2 | 0 | 2 | 0 | –
CC(C)C(=O)Oc1c(-c2ccc(C(F)(F)F)nc2Cl)c(=O)n(CC(F)F)c2nccnc12 [Compound A30] | – | – | – | – | – | – | – | – | – | – | – | – | – | – | SOLNI, damage to plant (Solanum nigrum [3]; 250 g/ha): 6; AMARE, damage to plant (Amaranthus retroflexus [4]; 250 g/ha): 9; IPOHE, damage to plant (Ipomea hederaceae [5]; 250 g/ha): 6; SETFA, damage to plant (Setaria faberi [6]; 250 g/ha): 4; ECHCG, damage to plant (Echinochloa crus-galli [7]; 250 g/ha): 1; SOLNI, damage to plant (Solanum nigrum [8]; 250 g/ha): 1; AMARE, damage to plant (Amaranthus retroflexus [9]; 250 g/ha): 1; IPOHE, damage to plant (Ipomea hederaceae [10]; 250 g/ha): 0; SETFA, damage to plant (Setaria faberi [11]; 250 g/ha): 0; ECHCG, damage to plant (Echinochloa crus-galli [12]; 250 g/ha): 3
Cc1nc(Cl)sc1-c1c(OC(=O)C(C)C)c2nccnc2n(C)c1=O [Compound B2, isobutyric acid 7-(2-chloro-4-methyl-thiazol-5-yl)-5-methyl-6-oxo-5,6-dihydro-pyrido[2,3-b]pyrazin-8-yl ester] | 5 | 0 | 0 | 0 | – | – | – | – | – | – | – | – | – | – | –
Cc1nc(Cl)sc1-c1c(OC(=O)C(C)(C)C)c2nccnc2n(C)c1=O [Compound B3] | 6 | 0 | 2 | 0 | – | – | – | – | – | – | – | – | – | – | –
CCn1c(=O)c(-c2sc(Cl)nc2C)c(OC(=O)C(C)(C)C)c2nccnc21 [Compound B4] | 8 | 3 | 2 | 0 | – | – | – | – | – | – | – | – | – | – | –
Cc1noc(-c2c(O)c3nccnc3n(C)c2=O)n1 [Compound B5, 8-hydroxy-5-methyl-7-(3-methyl-1,2,4-oxadiazol-5-yl)-5H-pyrido[2,3-b]pyrazin-6-one] | 0 | 0 | 0 | 3 | – | – | – | – | – | – | – | – | – | – | –
CC(C)C(=O)Oc1c(-c2cc(C(F)(F)F)no2)c(=O)n(C)c2nccnc12 [Compound B8, isobutyric acid 5-methyl-6-oxo-7-(3-trifluoromethyl-isoxazol-5-yl)-5,6-dihydro-pyrido[2,3-b]pyrazin-8-yl ester] | 2 | 2 | 0 | 0 | – | – | – | – | – | – | – | – | – | – | –
O=c1[nH]c2nccnc2c(O)c1-c1sc(Cl)nc1C(F)(F)F [Compound B11] | 5 | 2 | 5 | 3 | – | – | – | – | – | – | – | – | – | – | –
CC(C)C(=O)Oc1c(-c2c(C(F)(F)F)nn(C)c2OC(F)F)c(=O)n(CC(F)F)c2nccnc12 [Compound B24, isobutyric acid 7-(5-difluoromethoxy-1-methyl-3-trifluoromethyl-1H-pyrazol-4-yl)-5-(2,2-difluoro-ethyl)-6-oxo-5,6-dihydro-pyrido[2,3-b]pyrazin-8-yl ester] | – | – | – | – | 10 | 9 | 8 | 8 | 8 | 8 | 10 | 5 | 7 | 8 | –
Cn1nc(C(F)(F)F)c(-c2c(O)c3nccnc3n(CC(F)F)c2=O)c1OC(F)F [Compound B25, 7-(5-difluoromethoxy-1-methyl-3-trifluoromethyl-1H-pyrazol-4-yl)-5-(2,2-difluoro-ethyl)-8-hydroxy-5H-pyrido[2,3-b]pyrazin-6-one] | – | – | – | – | 10 | 8 | 8 | 8 | 8 | 7 | 10 | 6 | 8 | 8 | –
Cn1nc(C(F)(F)F)c(-c2c(O)c3nccnc3[nH]c2=O)c1OC(F)F [Compound B26, 7-(5-difluoromethoxy-1-methyl-3-trifluoromethyl-1H-pyrazol-4-yl)-8-hydroxy-5H-pyrido[2,3-b]pyrazin-6-one] | – | – | – | – | 3 | 5 | 3 | 8 | 6 | 0 | 1 | 0 | 0 | 1 | –
CC(C)C(=O)Oc1c(-c2nn(C)nc2C(F)(F)F)c(=O)[nH]c2nccnc12 [Compound B28] | – | – | – | – | 1 | 0 | 0 | 1 | 0 | 0 | 7 | 0 | 0 | 0 | –
CC(C)C(=O)Oc1c(-c2nn(C)nc2C(F)(F)F)c(=O)n(CC(F)F)c2nccnc12 [Compound B29] | – | – | – | – | 7 | 8 | 7 | 7 | 3 | 2 | 4 | 1 | 3 | 1 | –
Cn1nc(-c2c(O)c3nccnc3n(CC(F)F)c2=O)c(C(F)(F)F)n1 [Compound B30] | – | – | – | – | 9 | 9 | 8 | 7 | 6 | 2 | 7 | 3 | 2 | 1 | –
